Reference: patent EP0049203A1, “Benzoxazolinones substituted in the 6-position by an amino-alcohol or amino-ketone chain, their preparation and their therapeutic use” (RIOM LABORATOIRES- C.E.R.M. (Société Anonyme), priority 1980, dated 1982)

How the values were obtained:
[1] = tested on: Récepteurs adrénergiques α; experiment: Interference with noradrenaline-induced contraction (cumulative doses) of isolated vas deferens; conditions: rat vas deferens; for pA2: noradrenaline contraction; for INTERFERENCE AVEC LES RECEPTEURS ADRENERGIQUES α: result in words
Excerpt: (§1) L'activité pharmacologique des composés de l'invention a été révélée par recherche d'une interférence avec les récepteurs adrénergiques β1, β2 et α in vitro, conformément aux protocoles expérimentaux ci-après.
Récepteurs adrénergiques α : on étudie l'interférence des composés de l'invention sur la contraction du vas déferens isolé du rat, provoquée par des doses cumulatives de noradrénaline.
(§2) Les résultats sont exprimés dans le tableau I par les paramètres usuels de pharmacologie moléculaire, selon les critères utilisés par Van Rossum [Arch. Int.

[2] = target: T1, récepteurs adrénergiques β2 du muscle trachéal de cobaye (Cavia porcellus, UniProt Q8K4Z4); experiment: Antagonism of the bronchodilator effects of isoprenaline on isolated tracheal muscle; conditions: guinea-pig tracheal muscle; for Kb: β2, antagonism of isoprenaline, read-out: pA2 (converted); for INTERFERENCE AVEC LES RECEPTEURS ADRENERGIQUES β2: result in words
T1 construct: du muscle trachéal de cobaye; from tissue; host or cells: guinea pig tracheal muscle
T1 sequence (Q8K4Z4 whole entry): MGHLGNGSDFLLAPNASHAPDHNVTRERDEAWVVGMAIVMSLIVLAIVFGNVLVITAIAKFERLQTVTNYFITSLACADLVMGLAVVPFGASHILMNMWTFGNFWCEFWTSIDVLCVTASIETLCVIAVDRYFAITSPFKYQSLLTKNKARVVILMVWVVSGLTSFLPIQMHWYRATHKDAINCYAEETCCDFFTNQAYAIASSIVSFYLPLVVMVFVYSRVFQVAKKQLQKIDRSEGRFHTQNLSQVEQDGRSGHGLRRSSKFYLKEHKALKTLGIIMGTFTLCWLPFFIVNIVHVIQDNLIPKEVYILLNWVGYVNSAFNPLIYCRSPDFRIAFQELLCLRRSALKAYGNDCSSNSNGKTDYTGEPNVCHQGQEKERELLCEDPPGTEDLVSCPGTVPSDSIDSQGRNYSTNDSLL
Excerpt: as §1
Récepteurs adrénergiques β2 : on recherche l'antagonisme des effets bronchodilatateurs de l'isoprénaline sur les récepteurs p2 du muscle trachéal de cobaye.
as §2

[3] = target: T2, récepteurs β1 de l'oreillette gauche de cobaye (Cavia porcellus, UniProt H0W3H1); experiment: Antagonism of the positive inotropic effect of isoprenaline on electrically stimulated isolated left atrium; conditions: β1, guinea-pig left atrium; for Kb: antagonism of isoprenaline, read-out: pA2 (converted)
T2 construct: l'oreillette gauche de cobaye stimulée électriquement; from tissue; host or cells: guinea pig left atrium, electrically stimulated
T2 sequence (H0W3H1 1-470): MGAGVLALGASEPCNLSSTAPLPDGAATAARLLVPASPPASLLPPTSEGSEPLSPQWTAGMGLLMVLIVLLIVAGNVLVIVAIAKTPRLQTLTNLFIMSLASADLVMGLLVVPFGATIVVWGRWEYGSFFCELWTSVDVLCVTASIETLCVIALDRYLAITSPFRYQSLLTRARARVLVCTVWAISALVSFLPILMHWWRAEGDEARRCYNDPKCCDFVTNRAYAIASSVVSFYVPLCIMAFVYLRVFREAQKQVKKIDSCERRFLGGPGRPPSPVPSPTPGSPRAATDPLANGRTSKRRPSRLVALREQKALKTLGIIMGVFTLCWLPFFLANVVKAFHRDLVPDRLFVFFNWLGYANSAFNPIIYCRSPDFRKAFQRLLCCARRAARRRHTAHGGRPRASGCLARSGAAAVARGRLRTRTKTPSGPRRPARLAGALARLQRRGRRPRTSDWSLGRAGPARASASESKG
Excerpt: as §1
(§3) Récepteurs adrénergiques β1 : on recherche l'antagonisme de l'effet inotrope positif de l'isoprénaline sur les récepteurs β1 de l'oreillette gauche de cobaye stimulée électriquement.
as §2

[4] = tested on: récepteurs β1 de l'oreillette gauche de cobaye; experiment: as above; conditions: for cardiosélectivité: β1 versus β2, in words
Excerpt: as §1, §3, §2

[5] = tested on: souris; experiment: Thermal stimulus analgesia test (Eddy and Leimbach); assay type: in vivo; conditions: Mus musculus, po; test de stimulus thermique; par voie orale chez la souris; read-out: DE 50 (dose qui augmente de 50 % le temps de réaction)
Method: Dans le test de stimulus thermique [selon EDDY N.B., LEIMBACH D.J. Pharmacol. Exp. Ther., 107, 385-393, (1953)J la DE 50 de ce composé ― qui représente la dose de produit qui augmente de 50 % le temps de réaction des animaux traités par rapport à celui du groupe des animaux de contrôle - est de 4,4 mg/kg par voie orale chez la souris.

[6] = tested on: souris; experiment: Chemical stimulus analgesia test (Siegmund; abdominal cramps); assay type: in vivo; conditions: Mus musculus, po; test de stimulus chimique; par voie orale chez la souris; read-out: DE 50 (dose qui inhibe de 50 % le nombre de crampes abdominales)
Method: Dans le test de stimulus chimique [SIEGMUND E., CADMUS R. GO LU - Proc. Soc. Exp. Biol. Med. 95, 729-731, (1957)] la DE 50 de ce composé - qui représente la dose qui inhibe de 50 % le nombre de crampes abdominales par rapport à celui du groupe des animaux de contrôle - est de 9 mg/kg par voie orale chez la souris.

Compound	pA2 ([1]; α)	Kb [3]	INTERFERENCE AVEC LES RECEPTEURS ADRENERGIQUES β2 [2]	pD'2 [3]	cardiosélectivité [4]	other results
COc1ccccc1N1CCN([C@@H](C)[C@H](O)c2ccc3c(c2)oc(=O)n3C)CC1 (relative stereo) [compound 27, Erythro 2-[4-(2-méthoxyphényl)pipéraziny] 1-(3-méthyl-2-benzoxazolinon-6-yl) propanol]	6,14 ± 0,31	2240 nM	–	–	–	pD'2 ([1]; α): 4,73 ± 0,38; Kb [2]: 20900 nM
C[C@@H]([C@H](O)c1ccc2c(c1)oc(=O)n2C)N1CCN(c2ccc(F)cc2)CC1 (relative stereo) [compound 28]	–	6170 nM	Inactif	4	importante, voire totale	INTERFERENCE AVEC LES RECEPTEURS ADRENERGIQUES α [1]: Inactif
C[C@@H]([C@H](O)c1ccc2c(c1)oc(=O)n2C)N1CCC(Cc2ccccc2)CC1 (relative stereo) [compound 29]	–	2950 nM	Agoniste partiel	4,50 ± 0,21	–	–
COc1ccccc1N1CCN(CC(=O)c2ccc3c(c2)oc(=O)n3C)CC1 [compound 9, 2 [4-(2-méthoxyphényl)pipérazinyl] 1-(3-méthyl 2-benzoxazolinon-6-yl) éthanone]	–	3980 nM	–	3,8	–	–
CC(C(=O)c1ccc2c(c1)oc(=O)n2C)N1CCN(c2ccc(F)cc2)CC1 (stereo not drawn) [compound 10]	pA2 = 5,3 ± 0,12	1260 nM	Agoniste partiel	4,59 ± 0,61	–	–
Cn1c(=O)oc2cc(C(=O)CN3CCC(Cc4ccccc4)CC3)ccc21 [compound 13, 2-(4-benzyl-pipéridinyl) 1-(3-méthyl 2-benzoxazolinon-6-yl) éthanone]	–	5010 nM	–	–	–	–
NCC(O)c1ccc2[nH]c(=O)oc2c1 (stereo not drawn) [compound 16]	pA2 = 4,73 ± 0,52	6310 nM	Inactif	–	–	–
CC(C)NCC(O)c1ccc2[nH]c(=O)oc2c1 (stereo not drawn) [compound 18, 2-isopropylamino 1-(2-benzoxazolinon-6-yl) éthanol]	pA2 = 6,03 ± 0,43	34.7 nM	–	–	de faible intensité	Kb [2]: 776 nM
CC(C)(C)NCC(O)c1ccc2[nH]c(=O)oc2c1 (stereo not drawn) [compound 19]	–	224 nM	–	–	–	INTERFERENCE AVEC LES RECEPTEURS ADRENERGIQUES α [1]: Inactif; Kb [2]: 1480 nM
COc1ccccc1N1CCN(CC(O)c2ccc3c(c2)oc(=O)n3C)CC1 (stereo not drawn) [compound 22]	pA2 = 5,7 ± 0,25	2820 nM	Agoniste partiel	–	–	–
Cn1c(=O)oc2cc(C(O)CN3CCC(Cc4ccccc4)CC3)ccc21 (stereo not drawn) [compound 25, 2-(4-benzylpipéradinyl) 1-(3-méthyl 2-benzoxazolinon-6-yl) éthanol]	–	2000 nM	Inactif	4,2	importante, voire totale	–
O=c1[nH]c2ccc(C(O)CN3CCN(c4ccc(F)cc4)CC3)cc2o1 (stereo not drawn) [compound 30]	–	3980 nM	Inactif	–	importante, voire totale	–
Cn1c(=O)oc2cc(C(O)CN3CCN(c4cccc(C(F)(F)F)c4)CC3)ccc21 (stereo not drawn) [compound 31, 2-[4-(3-trifluorométhyl)phénylpipérazinyl] 1-(3-méthyl 2-benzoxazolinon-6-yl) éthanol]	–	–	–	–	–	ED50 [5]: 4.4 mg/kg; ED50 [6]: 9 mg/kg; activité sur les récepteurs adrénergiques ([4]; adrenergic receptors in general (β1, β2, α), in words): n'a pas une activité de même niveau que les autres composés de l'invention
